Measured values reported in patent publication US9084424B2, “N-benzyl heterocyclic carboxamides” (BAYER INTELLECTUAL PROPERTY GMBH, priority 2010, dated 2015).

Legend:
[1] = log P by HPLC on reversed-phase column (EEC Directive 79/831 Annex V.A8); type: physicochemical; details: 0.1% aqueous formic acid and acetonitrile, linear gradient 10% to 90% acetonitrile
Procedure, shortened: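 Column at 40° C; mobile phases 0.1% aqueous formic acid and acetonitrile, linear gradient 10% to 90% acetonitrile. Calibrated with unbranched alkan-2-ones (3 to 16 carbons) of known log P; values from retention times by linear interpolation between two successive alkanones.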

Alternaria solani = experiment: In vivo preventive test on Alternaria solani (tomato); details: preventive spray, 500 ppm of active ingredient, evaluated 7 days after inoculation
Description: In Vivo Preventive Test on Alternaria Solani (Tomato)
(§1) Solvent: 49 parts by weight of N,N-dimethylformamide
(§2) Emulsifier: 1 part by weight of alkylarylpolyglycolether
(§3) To produce a suitable preparation of active compound, 1 part by weight of active compound is mixed with the stated amounts of solvent and emulsifier, and the concentrate is diluted with water to the desired concentration.
To test for preventive activity, young plants are sprayed with the preparation of active compound at the stated rate of application. One day after this treatment, the plants are inoculated with an aqueous spore suspension of Alternaria solani. The plants remain for one day in an incubation cabinet at approximately 22° C. and a relative atmospheric humidity of 100%. Then the plants are placed in an incubation cabinet at approximately 20° C. and a relative atmospheric humidity of 96%.
The test is evaluated 7 days after the inoculation. 0% means an efficacy which corresponds to that of the untreated control while an efficacy of 100% means that no disease is observed.

Leptosphaeria nodorum = experiment: In vivo preventive test on Leptosphaeria nodorum (wheat); details: preventive spray, 500 ppm of active ingredient, evaluated 7-9 days after inoculation
Description: In Vivo Preventive Test on Leptosphaeria nodorum (Wheat)
(§4) Solvent: 49 parts by weight of N,N-dimethylacetamide
(§5) Emulsifier: 1 part by weight of alkylaryl polyglycol ether
as §3
To test for preventive activity, young plants are sprayed with a preparation of active compound at the stated rate of application. One day after this treatment, the plants are inoculated with an aqueous spore suspension of Leptosphaeria nodorum. The plants remain for 48 hours in an incubation cabinet at 22° C. and a relative atmospheric humidity of 100%. Then the plants are placed in a greenhouse at a temperature of approximately 22° C. and a relative atmospheric humidity of approximately 90%.
The test is evaluated 7-9 days after the inoculation. 0% means an efficacy which corresponds to that of the untreated control, while an efficacy of 100% means that no disease is observed.
Under these conditions, good (at least 70%) to excellent protection (at least 95%) is observed at a dose of 500 ppm of active ingredient with the following compounds from table D: […]

Pyrenophora teres = experiment: In vivo preventive test on Pyrenophora teres (barley); details: preventive spray, 500 ppm of active ingredient, evaluated 7-9 days after inoculation
Procedure, shortened: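 Young barley plants were sprayed with compound formulated in N,N-dimethylacetamide/emulsifier and diluted with water, then inoculated with P. teres spores one day later. After 48 h at 22° C., 100% humidity, plants stood in a greenhouse (~20° C., ~80% humidity); efficacy versus untreated control was scored 7-9 days post-inoculation.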

Sphaerotheca fuliginea = experiment: In vivo preventive test on Sphaerotheca fuliginea (cucumber); details: preventive spray, 500 ppm of active ingredient, evaluated 7 days after inoculation
Description: In Vivo Preventive Test on Sphaerotheca fuliginea (Cucumber)
as §1, §2, §3
To test for preventive activity, young plants are sprayed with the preparation of active compound at the stated rate of application. After the spray coating has dried on, the plants are inoculated with an aqueous spore suspension of Sphaerotheca fuliginea. The plants are then placed in a greenhouse at approximately 23° C. and a relative atmospheric humidity of approximately 70%.
(§6) The test is evaluated 7 days after the inoculation. 0% means an efficacy which corresponds to that of the untreated control, while an efficacy of 100% means that no disease is observed.

[2] = tested on: Blumeria graminis f.sp. hordei; experiment: In vivo preventive test on Blumeria graminis (barley); details: preventive spray, 500 ppm of active ingredient, evaluated 7 days after inoculation
Description: In Vivo Preventive Test on Blumeria graminis (Barley)
as §4, §5
(§7) To produce a suitable preparation of active compound, 1 part by weight of active compound or active compound combination is mixed with the stated amounts of solvent and emulsifier, and the concentrate is diluted with water to the desired concentration.
(§8) To test for preventive activity, young plants are sprayed with the preparation of active compound or active compound combination at the stated rate of application.
After the spray coating has been dried, the plants are dusted with spores of Blumeria graminis f.sp. hordei.
The plants are placed in the greenhouse at a temperature of approximately 18° C. and a relative atmospheric humidity of approximately 80% to promote the development of mildew pustules.
as §6

Septoria tritici = experiment: In vivo preventive test on Septoria tritici (wheat); details: preventive spray, 500 ppm of active ingredient, evaluated 21 days after inoculation
Description: In Vivo Preventive Test on Septoria tritici (Wheat)
as §4, §5, §7, §8
After the spray coating has been dried, the plants are sprayed with a spore suspension of Septoria tritici. The plants remain for 48 hours in an incubation cabinet at approximately 20° C. and a relative atmospheric humidity of approximately 100% and afterwards for 60 hours at approximately 15° C. in a translucent incubation cabinet at a relative atmospheric humidity of approximately 100%.
The plants are placed in the greenhouse at a temperature of approximately 15° C. and a relative atmospheric humidity of approximately 80%.
The test is evaluated 21 days after the inoculation. 0% means an efficacy which corresponds to that of the untreated control, while an efficacy of 100% means that no disease is observed.

Puccinia triticina = experiment: In vivo preventive test on Puccinia triticina (wheat); details: preventive spray, 500 ppm of active ingredient, evaluated 8 days after inoculation
Description: In Vivo Preventive Test on Puccinia triticina (Wheat)
as §4, §5, §7, §8
After the spray coating has been dried, the plants are sprayed with a spore suspension of Puccinia triticina. The plants remain for 48 hours in an incubation cabinet at approximately 20° C. and a relative atmospheric humidity of approximately 100%.
The plants are placed in the greenhouse at a temperature of approximately 20° C. and a relative atmospheric humidity of approximately 80%.
The test is evaluated 8 days after the inoculation. 0% means an efficacy which corresponds to that of the untreated control, while an efficacy of 100% means that no disease is observed.

[3] = HPLC, reversed-phase C 18, 40° C.
[4] = HPLC on reversed-phase column (C 18), 40° C.

Compound | logP [1, 3] | logP [1, 4] | Efficacy (Alternaria solani) | Efficacy (Leptosphaeria nodorum) | Efficacy (Pyrenophora teres) | Efficacy (Sphaerotheca fuliginea) | Efficacy [2] | Efficacy (Septoria tritici) | Efficacy (Puccinia triticina)
CC(NC(=S)c1c(C(F)F)nn(C)c1Cl)c1ccc(Cl)cc1Cl (centres unmarked) [Example 44] | 3.99 | – | 100% | 89% | 100% | – | – | – | –
CON(Cc1ncc(Cl)cc1Cl)C(=O)c1c(C(F)F)nn(C)c1F [Example 181] | – | 2.73 | 80% | 70% | 100% | – | – | – | 70%
CC(c1ccc(Oc2ccccc2)cc1)N(C)C(=O)c1c(C(F)F)nn(C)c1F (racemic) [Example 154] | – | 3.59 | 95% | 70% | 100% | – | – | – | –
CC(c1cc(Cl)cc(Cl)c1)N(C)C(=O)c1c(C(F)F)nn(C)c1F (centres unmarked) [Example 117] | – | 3.46 | 100% | 70% | 100% | 95% | – | – | 70%
Cn1nc(C(F)F)c(C(=O)N(Cc2ccc(Cl)cc2Cl)C2CCC2)c1F [Example 31] | 4.19 | – | – | 80% | 100% | – | – | – | –
CN(Cc1ncc(Cl)cc1Cl)C(=O)c1c(C(F)F)nn(C)c1Cl [Example 180] | – | 2.73 | 80% | – | 100% | – | – | – | 80%
CC(c1ncc(Cl)cc1Cl)N(C)C(=O)c1c(C(F)F)nn(C)c1F (centres unmarked) [Example 185] | – | 2.92 | 100% | 95% | 95% | – | 100% | 100% | 90%
CC(c1cc(Cl)cc(Cl)c1)N(C)C(=S)c1c(C(F)F)nn(C)c1F (centres unmarked) [Example 118] | – | 4.24 | 100% | 70% | 100% | 95% | – | – | –
Cn1nc(C(F)F)c(C(=O)N(Cc2ccccc2[Si](C)(C)C)C2CCC2)c1F [Example 98] | 4.61 | – | 70% | – | – | 96% | – | – | 95%
CCN(Cc1ccccc1C(C)C)C(=O)c1c(C(F)F)nn(C)c1F [Example 68] | 3.42 | – | 80% | – | 100% | 100% | 100% | 100% | 70%
CC(C)c1ccccc1CNC(=O)c1c(C(F)F)nn(C)c1Cl [Example 79] | 3.19 | – | – | 94% | 95% | – | – | – | –
CN(Cc1ncc(Cl)cc1Cl)C(=O)c1c(C(F)F)nn(C)c1F [Example 179] | – | 2.53 | 90% | 70% | 100% | – | – | – | –

Now from value to compound, other results behind:

logP [1, 3] | logP [1, 4] | Compound | Efficacy (Alternaria solani) | Efficacy (Leptosphaeria nodorum) | Efficacy (Pyrenophora teres) | Efficacy (Sphaerotheca fuliginea) | Efficacy [2] | Efficacy (Septoria tritici) | Efficacy (Puccinia triticina)
3.44 | – | CC(c1ccccc1Cl)N(C)C(=S)c1c(C(F)F)nn(C)c1F (racemic) [Example 18] | 95% | 95% | 100% | 90% | – | – | –
3.81 | – | Cn1nc(C(F)F)c(C(=O)N(Cc2c(Cl)cccc2C(F)(F)F)C2CCC2)c1F [Example 90] | 95% | – | 100% | 100% | 100% | 100% | 95%
3.37 | – | CON(Cc1ccccc1C(C)C)C(=O)c1c(C(F)F)nn(C)c1F [Example 76] | 94% | 89% | – | 93% | – | – | –
3.15 | – | CC(c1cc(Cl)ccc1Cl)N(C)C(=O)c1c(C(F)F)nn(C)c1F (centres unmarked) [Example 56] | 100% | 70% | 100% | 95% | – | – | –
3.11 | – | CC(C)c1ccccc1CN(C)C(=O)c1c(C(F)F)nn(C)c1F [Example 72] | 95% | 78% | 100% | 98% | 100% | 90% | –
3.93 | – | C#CCN(Cc1ccccc1[Si](C)(C)C)C(=O)c1c(C(F)F)nn(C)c1F [Example 101] | 70% | – | 80% | – | – | – | 90%
3.65 | – | CON(C(=O)c1c(C(F)F)nn(C)c1F)C(C)c1ccc(Cl)cc1Cl (centres unmarked) [Example 45] | – | 95% | 100% | 100% | – | – | –
3.02 | – | CC(C)c1ccccc1CNC(=O)c1c(C(F)F)nn(C)c1F [Example 74] | 95% | 80% | 100% | 95% | – | – | –
4.39 | – | Cn1nc(C(F)F)c(C(=O)N(Cc2ccc(Cl)cc2Cl)C2CCC2)c1Cl [Example 30] | – | 90% | 100% | – | – | – | –
– | 4.11 | Cn1nc(C(F)F)c(C(=O)N(Cc2ncc(Cl)cc2Cl)C2CCCC2)c1Cl [Example 184] | – | – | – | – | – | – | 70%
– | 3.29 | Cn1nc(C(F)F)c(C(=O)NCc2ccccc2SC(F)(F)F)c1Cl [Example 106] | – | – | 90% | – | – | – | 80%
– | 3.41 | Cn1nc(C(F)F)c(C(=O)NC2(c3ccc(Cl)c(C(F)(F)F)c3)CC2)c1Cl [Example 126] | – | – | 95% | – | – | – | 78%
4.09 | – | CCN(Cc1ccccc1[Si](C)(C)C)C(=O)c1c(C(F)F)nn(C)c1F [Example 99] | 95% | – | 95% | 95% | – | – | 100%
3.13 | – | CC(NC(=O)c1c(C(F)F)nn(C)c1F)c1cccc(Cl)c1Cl (racemic) [Example 29] | 94% | – | 100% | – | – | 88% | –
4.27 | – | C=CCN(Cc1ccccc1[Si](C)(C)C)C(=O)c1c(C(F)F)nn(C)c1F [Example 100] | 80% | – | – | – | – | – | 80%
4.39 | – | Cn1nc(C(F)F)c(C(=O)NC(C)(C)c2ccc(Cl)cc2Cl)c1F [Example 39] | 70% | 90% | 95% | 95% | – | – | –
